Data published in US20150231236A1, “METHODS FOR TREATING PATIENTS WITH HYPERCHOLESTEROLEMIA THAT IS NOT ADEQUATELY CONTROLLED BY MODERATE-DOSE STATIN THERAPY” (Regeneron Pharmaceuticals, Inc., priority 2014, published 2015).

Tests used:
[1] = system: patients with hypercholesterolemia at high CV risk not adequately controlled with atorvastatin (20 mg or 40 mg); experiment: Example 2: safety, treatment-emergent adverse events in pooled treatment groups; settings: Safety Population, pooled treatment groups
Experimental: For the pooled data, three treatment groups are formed by combining treatment arms regardless of the atorvastatin doses as follows:
(2) EZE treatment group: pooling EZE+atorva 20 mg arm and EZE+atorva 40 mg arm;

[2] = system: patients with hypercholesterolemia at high CV risk not adequately controlled with rosuvastatin (10 mg or 20 mg); experiment: Example 3: safety, treatment-emergent adverse events in pooled treatment groups; settings: Safety Population; pooled treatment groups
[3] = system: patients with hypercholesterolemia at high CV risk not adequately controlled with rosuvastatin (10 mg or 20 mg); experiment: Example 3: randomized, double-blind trial, lipid efficacy of mAb316P add-on to rosuvastatin vs EZE add-on or rosuvastatin dose doubling; format: in vivo, human; settings: for Proportion of Patients Reaching LDL-C goal (%) / LDL-C W24 % change from baseline, LS mean (SE): week 24; for Proportion of Patients Reaching LDL-C goal (%): LDL-C <70 mg/dL very high risk or <100 mg/dL high risk; for LDL-C W24 % change from baseline, LS mean (SE): ITT population, treatment arm as labelled
Experimental: The present study was a randomized, double-blind, active-comparator, parallel-group study in patients at high CV risk with non-FH or heFH who are not adequately controlled with rosuvastatin (10 mg or 20 mg) with or without other lipid-modifying therapy (LMT) (excluding EZE). The study design is illustrated in FIG. 2. Patients who entered the study were taking either rosuvastatin 10 mg or rosuvastatin 20 mg. The former patients were randomized to 1 of 3 treatment arms (arms 1 to 3); the latter patients were randomized to 1 of 3 treatment arms (arms 4 to 6). The treatment arms are as follows:
(B) a double-blind treatment period of 24 weeks. […] The patient/caregiver administered subsequent injections outside of the clinic according to the dosing schedule. […] The last dose of daily oral study drugs was administered at week 24.
The first injection of study drug was administered at the clinical site, as soon as possible after the patient was randomized into the study. The patient was monitored at the clinical site for at least 30 minutes following the first injection. The patient/caregiver administered subsequent injections outside of the clinic, according to the dosing schedule.
(§1) The primary efficacy endpoint was the percent change in calculated LDL-C from baseline to week 24, which is defined as: 100× (calculated LDL-C value at week 24−calculated LDL-C value at baseline)/calculated LDL-C value at baseline. The baseline calculated LDL-C value was the last LDL-C level obtained before the first double-blind study drug injection. The calculated LDL-C at week 24 was the LDL-C level obtained within the week 24 analysis window and during the main efficacy period. The main efficacy period is defined as the time from the first double-blind study drug injection up to 21 days after the last double-blind study drug injection or up to the upper limit of the week 24 analysis window, whichever comes first.
Total-C, HDL-C, TG, ApoB, ApoA-1, and Lp(a) were directly measured by a central laboratory. LDL-C was calculated using the Friedewald formula. […] Non-HDL-C was calculated by subtracting HDL-C from the total-C. Ratio ApoB/ApoA-1 was calculated.
For clarification, the ITT analysis is defined for patients in the ITT population and includes all endpoint assessments in an analysis window, regardless of study treatment dosing status (i.e. includes post-treatment assessments). The on-treatment analysis is defined for patients in the mITT population and includes all endpoint assessments from the first double-blind study drug (capsule or injection, whichever comes first) up to 21 days after the last double-blind study drug injection or 3 days after the last capsule intake, whichever comes first (i.e. includes assessments in the efficacy treatment period).

[4] = system: patients with hypercholesterolemia at high CV risk not adequately controlled with atorvastatin (20 mg or 40 mg); experiment: Example 2: randomized, double-blind trial, lipid efficacy of mAb316P add-on to atorvastatin vs EZE add-on, atorvastatin dose doubling or switch to rosuvastatin; format: in vivo, human; settings: for reduced LDL-C levels by: week 24, add-on mAb316P
Experimental: The present study was a randomized, double-blind, active-comparator, parallel-group study in patients at high CV risk with non-FH or heFH who are not adequately controlled with atorvastatin (20 mg or 40 mg) with or without other lipid-modifying therapy (LMT) (excluding EZE). The study design is illustrated in FIG. 1. Patients who entered the study were taking either atorvastatin 20 mg or atorvastatin 40 mg. The former patients were randomized to 1 of 3 treatment arms (arms 1 to 3); the latter patients were randomized to 1 of 4 treatment arms (arms 4 to 7). The treatment arms are as follows:
(1) mAb316P+atorvastatin 20 mg+placebo-EZE; (2) Placebo-mAb316P+atorvastatin 40 mg+placebo-EZE; and (3) Placebo-mAb316P+atorvastatin 20 mg+EZE 10 mg.
(4) mAb316P+atorvastatin 40 mg+placebo-EZE; (5) Placebo-mAb316P+atorvastatin 80 mg+placebo-EZE; (6). Placebo-mAb316P+rosuvastatin 40 mg+placebo-EZE; and (7) Placebo-mAb316P+atorvastatin 40 mg+EZE 10 mg.
(B) a double-blind treatment period of 24 weeks. Each patient received a SC injection Q2W (mAb316P or placebo-mAb316P) and was administered (or instructed to take) 2 oral blinded medications daily (a statin [atorvastatin or rosuvastatin] and EZE or placebo-EZE). The first injection of mAb316P or placebo-mAb316P was administered at the clinical site on day 1, after study assessments were completed, and as soon as possible after the patient was randomized into the study. The patient/caregiver administered subsequent injections outside of the clinic according to the dosing schedule. On days where the clinic study visit coincided with dosing, the dose of study drugs (injectable and oral) were administered after all study assessments had been performed and all laboratory samples collected. The last dose of mAb316P or placebo-mAb316P was administered at week 22. The last dose of daily oral study drugs was administered at week 24. At week 12, based on their baseline CV risk, certain patients randomized to mAb316P in a blinded manner, had their dose increased as follows:
Each patient received a subcutaneous (SC) injection once every two weeks (Q2W) (mAb316P or placebo-mAb316P) and took 2 oral blinded medications daily (a statin [atorvastatin or rosuvastatin] and EZE or placebo-EZE).
The injectable study treatment was a single SC injection of 1 mL for a 75 mg or 150 mg dose of mAb316P or placebo-mAb316P provided in an auto-injector, administered in the abdomen, thigh, or outer area of the upper arm. The first injection of study drug was administered at the clinical site, as soon as possible after the patient was randomized into the study. The patient was monitored at the clinical site for at least 30 minutes following the first injection. The patient/caregiver administered subsequent injections outside of the clinic, according to the dosing schedule. On days where the clinic study visit coincided with dosing, the dose of study drug was administered after all study assessments have been performed and all laboratory samples collected.
The dose of mAb316P was increased, in a blinded manner, from 75 mg to 150 mg SC Q2W, starting at week 12, based on baseline CV risk in the following circumstances:
as §1, with “24 will be” for “24 was”, “period was” for “period is”
Total-C, HDL-C, TG, ApoB, ApoA-1, and Lp (a) were directly measured by a central laboratory. […]

[5] = Week 4, baseline rosuvastatin 10 mg
[6] = Week 8, baseline rosuvastatin 10 mg
[7] = Week 12, baseline rosuvastatin 10 mg
[8] = Week 16, baseline rosuvastatin 10 mg
[9] = Week 24, baseline rosuvastatin 10 mg
[10] = Week 4, baseline rosuvastatin 20 mg
[11] = Week 8, baseline rosuvastatin 20 mg
[12] = Week 12, baseline rosuvastatin 20 mg
[13] = Week 16, baseline rosuvastatin 20 mg
[14] = Week 24, baseline rosuvastatin 20 mg

## O=C1[C@H](CC[C@H](O)c2ccc(F)cc2)[C@@H](c2ccc(O)cc2)N1c1ccc(F)cc1 [EZE, ezetimibe, reference compound]
[1]
  General Allergic TEAEs (SMQ Hypersensitivity): 5 (5.0%) patients (%)
  SOC Injury, poisoning and procedural complications: 12 (11.9%) patients (%)
  SOC Musculoskeletal and connective tissue disorders: 13 (12.9%) patients (%)
  SOC Neoplasms benign, malignant and unspecified (incl cysts and polyps): 0 patients (%)
  SOC Nervous system disorders: 6 (5.9%) patients (%)
  TEAEs: 65 (64.4%) patients (%)
  Treatment-emergent SAEs: 7 (6.9%) patients (%)
  Treatment-emergent injection site reactions (ISRs): 3 (3.0%) patients (%)
  Treatment-emergent neurologic disorders: 1 (1.0%) patients (%)
  discontinued study treatment early due to a treatment emergent adverse event (TEAE): 4 (4.0%) patients (%)
  patient deaths: Two
[1]; ischemia driven coronary revascularization procedure
  Treatment-emergent cardiovascular events adjudicated positively: 1 (1.0%) patients (%)
[2]
  General Allergic TEAEs: 2 (2.0%) patients (%)
  SOC General disorders and administration site conditions: 8 (7.9%) patients (%)
  SOC Psychiatric disorders: 4 (4.0%) patients (%)
  SOC Respiratory, thoracic and mediastinal disorders: 2 (2.0%) patients (%)
  SOC Skin and subcutaneous tissue disorders: 5 (5.0%) patients (%)
  TEAEs: 54 (53.5%) patients (%)
  Treatment-emergent SAEs: 8 (7.9%) patients (%)
  Treatment-emergent cardiovascular events adjudicated positively: 1 (1.0%) patients (%)
  Treatment-emergent neurocognitive disorders: 1 (1.0%) patients (%)
  Treatment-emergent neurologic disorders: 3 (3.0%) patients (%)
  cough: 0 patients (%)
  discontinued study treatment early due to a treatment emergent adverse event: 8 (7.9%) patients (%)
  injection site reactions (ISRs): 0 patients (%)
[3]; Baseline Rosuvastatin 10 mg
  Proportion of Patients Reaching LDL-C goal (%): 57.2%
[3]; Baseline Rosuvastatin 20 mg
  Proportion of Patients Reaching LDL-C goal (%): 52.2%
[3]; baseline rosuvastatin 10 mg regimen
  proportion of patients who reached LDL-C level of <70 mg/dL (1.81 mmol/L) at Week 24: 43.1%
[3]; baseline rosuvastatin 20 mg regimen
  proportion of patients who reached LDL-C level of <70 mg/dL (1.81 mmol/L) at Week 24: 43.6%
[4]; across atorvastatin 20 mg and 40 mg regimens, ezetimibe add-on groups, atorvastatin dose increase groups
  LDL-C reductions observed: 20.5-22.6%
[4]; atorvastatin 20 mg regimen, add-on ezetimibe or doubling of atorvastatin dose
  reduced LDL-C levels by: 20.5%
[4]; atorvastatin 40 mg regimen, add-on ezetimibe, doubling of atorvastatin dose or switch to rosuvastatin 40 mg
  reduced LDL-C levels by: 22.6%

## mAb316P + RSV 10: treatment arm: mAb316P 75/150 mg Q2W + rosuvastatin 10 mg daily
[3]; Baseline Rosuvastatin 10 mg
  Proportion of Patients Reaching LDL-C goal (%): 84.9%
[3]; Baseline, baseline rosuvastatin 10 mg
  Calculated LDL-C LS mean (SE) Value: 107.8 (3.8) mg/dL
[3]
  LDL-C W24 % change from baseline, LS mean (SE): −50.6%
[3]; [5]
  Calculated LDL-C LS mean (SE) Value: 49.9 (3.6) mg/dL
  Calculated LDL-C LS mean (SE), % Change from Baseline: −53.1 (3.2) %
  Calculated LDL-C LS mean (SE), Change from Baseline: −55.3 (3.6)
[3]; [6]
  Calculated LDL-C LS mean (SE) Value: 49.4 (4.3) mg/dL
  Calculated LDL-C LS mean (SE), % Change from Baseline: −53.8 (3.8) %
  Calculated LDL-C LS mean (SE), Change from Baseline: −55.9 (4.3)
[3]; [7]
  Calculated LDL-C LS mean (SE) Value: 53.9 (4.1) mg/dL
  Calculated LDL-C LS mean (SE), % Change from Baseline: −49.6 (4.1) %
  Calculated LDL-C LS mean (SE), Change from Baseline: −51.3 (4.1)
[3]; [8]
  Calculated LDL-C LS mean (SE) Value: 49.2 (4.7) mg/dL
  Calculated LDL-C LS mean (SE), % Change from Baseline: −54.1 (4.7) %
  Calculated LDL-C LS mean (SE), Change from Baseline: −56.1 (4.7)
[3]; [9]
  Calculated LDL-C LS mean (SE) Value: 53.0 (4.3) mg/dL
  Calculated LDL-C LS mean (SE), % Change from Baseline: −50.6 (4.2) %
  Calculated LDL-C LS mean (SE), Change from Baseline: −52.2 (4.3)

## mAb316P + RSV 20: treatment arm: mAb316P 75/150 mg Q2W + rosuvastatin 20 mg daily
[3]; Baseline Rosuvastatin 20 mg
  Proportion of Patients Reaching LDL-C goal (%): 66.7%
[3]; Baseline, baseline rosuvastatin 20 mg
  Calculated LDL-C LS mean (SE) Value: 118.1 (4.5) mg/dL
[3]
  LDL-C W24 % change from baseline, LS mean (SE): −36.3%
[3]; [10]
  Calculated LDL-C LS mean (SE) Value: 69.9 (3.4) mg/dL
  Calculated LDL-C LS mean (SE), % Change from Baseline: −39.6 (5.2) %
  Calculated LDL-C LS mean (SE), Change from Baseline: −47.1 (3.4)
[3]; [11]
  Calculated LDL-C LS mean (SE) Value: 67.4 (4.3) mg/dL
  Calculated LDL-C LS mean (SE), % Change from Baseline: −40.6 (5.7) %
  Calculated LDL-C LS mean (SE), Change from Baseline: −49.6 (4.3)
[3]; [12]
  Calculated LDL-C LS mean (SE) Value: 76.1 (4.2) mg/dL
  Calculated LDL-C LS mean (SE), % Change from Baseline: −32.3 (5.2) %
  Calculated LDL-C LS mean (SE), Change from Baseline: −41.0 (4.2)
[3]; [13]
  Calculated LDL-C LS mean (SE) Value: 64.5 (4.8) mg/dL
  Calculated LDL-C LS mean (SE), % Change from Baseline: −44.8 (6.2) %
  Calculated LDL-C LS mean (SE), Change from Baseline: −52.6 (4.8)
[3]; [14]
  Calculated LDL-C LS mean (SE) Value: 73.5 (5.8) mg/dL
  Calculated LDL-C LS mean (SE), % Change from Baseline: −36.3 (7.1) %
  Calculated LDL-C LS mean (SE), Change from Baseline: −43.5 (5.8)
